Laboratory results as given in patent publication US20120244567A1, “HUMAN EMBRYONIC STEM CELLS FOR HIGH THROUGHOUT DRUG SCREENING” (BUCK INSTITUTE FOR RESEARCH ON AGING, priority 2009, published 2012).
Counter-ions that a name gives are not always drawn.

Assays:
hESC-derived NSCs = assay: ATP assay in hESC-derived NSCs (96-well, primary screen and retest); type: cell-based, human; parameters: cytotoxicity: dose or concentration left out as unconfirmed; toxicity to NSCs (reduced ATP concentrations) / ATP levels in NSC population: unit of the concentration uncertain
Procedure: EBs were then cultured for additional 2-3 days in suspension in neural induction media containing DMEM/F12 with Glutamax, 1×NEAA, 1×N2 and FGF2 (20 ng/ml) prior to attachment on cell culture plates. […] To obtain a pure population of NSCs, rosettes were manually isolated and dissociated into single cells using Accutase. The NSCs population was expanded in Neurobasal media containing 1×NEAA, 1×L-Glutamine (2 mM), 1×B27, LIF and FGF2 20 ng/ml.
Media was changed every day for hESCs and every other day for NSCs and additionally changed prior to drug treatment. The cells were treated with compounds from the NINDS library diluted in […] of either ESC or NSC media to a final concentration of 2.5 mM in 0.01% DMSO. […] For all sampling, ESC and NSC plates were processed in parallel for one drug or control condition at a time.
(§1) For ATP measurements, the media was removed, cells were washed 1× in milliQ water and reconstituted in […] ATP-Lite Mammalian Lysis Buffer and shaken for 5 minutes. Two […] aliquots of lysed cells were replated onto separate 96 well plates for later protein measurements.
(§2) To identify compounds that are toxic to hESCs, hESC-derived NSCs, or both, we screened 720 FDA-approved drugs of the NINDS collection by testing the toxicity of each drug at a dose of 2.5 mM. For endpoint measurement of cell death caused by drug toxicity, we used a widely accepted ATP assay that measures changes in ATP level as an indicator of cellular response to cell death. In this assay, total ATP content per well was measured and normalized to the total cellular protein.
Three concentrations of each compound (1 mM, 2.5 mM and 10 mM) were used in the retest.

hESCs = assay: ATP assay in hESCs (96-well); type: cell-based, human; parameters: dose or concentration left out as unconfirmed; settings: 48 h (FIG. 5)
Procedure: Media was changed every day for hESCs and every other day for NSCs and additionally changed prior to drug treatment. […] […] For all sampling, ESC and NSC plates were processed in parallel for one drug or control condition at a time.
as §1, §2

NSCs = assay: Cell death observed in NSCs in 35-mm dishes; type: cell-based, human
Excerpt: NSCs and dopaminergic neurons grown in 35-mm dishes were exposed to amiodarone HCl.

[1] = test system: human fetal-derived astrocytes; assay: Effect on human astrocytes (cell death); type: cell-based; settings: up to 48 hours after treatment
Excerpt: Media was changed every other day and cells were passaged once a week at a 1:4 ratio.

2102Ep cells = assay: Effect on immortal cell line 2102Ep; type: cell-based, human; settings: 48 hours after treatment, data not shown
Excerpt: Media was changed every day and cells were passaged every 3-4 days at a ratio of between 1:4 to 1:6.

[2] = test system: hESCs and hESC-derived NSCs; assay: Comparative ATP screening on hESCs and hESC-derived NSCs (ratio ESC/NSC or NSC/ESC); parameters: hit class in primary screen / ESC/NSC: dose or concentration left out as unconfirmed; settings: NINDS primary screen, ATP relative to DMSO controls
Excerpt: Hits were defined based on the ability of a compound to affect ATP levels relative to DMSO controls on each plate.

CCCCc1oc2ccccc2c1C(=O)c1cc(I)c(OCCN(CC)CC)c(I)c1 [Amiodarone Hydrochloride]
ATP levels in NSC population (hESC-derived NSCs; 10 (unit uncertain), 48 h (FIG. 5)): less than 15 % of the control mean
cytotoxicity (hESC-derived NSCs; Homo sapiens, NINDS primary screen, 48 hours, read-out: NSC ATP values below the control mean): ≥ 15%
effect on NSC survival among dose responsive compounds (hESC-derived NSCs; retest, FIG. 2 panel B): most dramatic effect on NSC survival
effect seen in hESC (ATP levels) (hESCs): intermediate between NSCs and dopaminergic neurons
time after drug exposure at which cell death was observed in NSCs (NSCs; 35-mm dishes): 2 h
cell death in NSCs (NSCs; by 8 hours, 35-mm dishes): more than 90%
cell death in similarly treated NSCs (NSCs; within one hour of drug administration): massive cell death
astrocyte cell death [1]: did not cause astrocyte cell death
effect on 2102Ep cells (2102Ep cells): no effect
hit class in primary screen [2]: NSC Killers
